Results on one molecule are retold here after patent publication US12029715B2, “Precursor compounds for providing retinoids of the vitamin A5 pathway and uses thereof” (UNIVERSITY OF DEBRECEN, priority 2015, dated 2024).

The subject of series [1] is C57BL/6N mice. The series can be described thus: Chronic social defeat stress model, forced swim test. The class given is in vivo, mouse. Conditions: stressed mice, 10 mg/kg i.p. every second day of stress protocol; 10 mg/kg. The procedure: (§1) The forced swim paradigm was carried out between 1 pm and 4 pm in a 3-litre glass beaker half-filled with water at 22-23° C. (the water depth was 17 cm). All mice were tested only once in this task. To this end, each mouse was lowered gently into the water and the time of immobility was scored during a 6-minute testing period. The mouse was judged immobile when it floated in an upright position and made only small movements to keep its head above the water. After 6 min, the mouse was taken out of the water, left to dry under a red light lamp and returned to its home cage. The immobility scores of each animal were used as an index of despair behavior.
(§2) Social defeat stress procedure was a modified version of the protocol previously described (Berton, McClung et al. 2006). C57BL/6N mice were defeated chronically for 10 consecutive days. Every day they were exposed to the physical contact with an unfamiliar CD1 aggressor in its home cage for maximal interaction time of 5 minutes. After each session of physical stress, C57BL/6N and CD1 mice were separated by a perforated wall and maintained in sensory contact for 24 h. After the last session of stress, mice were transferred into new cages and housed separately throughout the behavioral tests period. C57BL/6N control mice, similarly to the experimental animals, were housed two per cage separated by a metal perforated wall. Every day, they were exposed to the physical contact for 5 minutes.
For behavioral analysis, 9CDHROL and 9CDHBC were dissolved in ethanol, and then mixed with sunflower oil, so that the final solution contained 3% ethanol. Vehicle treatments consisted of 3% ethanol solution in sunflower oil. For memory studies treatments with 9CDHRA were administered by intraperitoneal injections at volume/weight ratio 3 ml/kg at 7 am and 7 hours before the beginning of testing. For tests with animal model of chronic social defeat, different treatments were administered by intraperitoneal injections at volume/weight ratio 3 ml/kg at 10 mg/kg for each substance between 5-6 pm every second day of stress protocol immediately after the stress session starting from day 1 of the stress protocol.
as §1, with “paradigm (Dalvi and Lucki, 1999)” for “paradigm”, “2-litre” for “3-litre”
Social defeat stress procedure was a modified version of the protocol previously described (Berton et al. 2006). C57BL/6N mice were defeated chronically for 10 consecutive days. Every day they were exposed to the physical contact with an unfamiliar CD1 aggressor in its home cage for maximal interaction time of 5 minutes. After each session of physical stress, C57BL/6N and CD1 mice were separated by a perforated wall and maintained in sensory contact for 24 h. After the last session of stress, mice were transferred into new cages and housed separately throughout the behavioral tests period. […]

The subject of series [2] is C57BL/6N mice. Description: Chronic social defeat stress model, sucrose preference test. The class given is in vivo, mouse. Conditions: stressed mice, 10 mg/kg i.p. every second day of stress protocol; 10 mg/kg.
From the text: This task, designed to measure hedonic behaviors in mice is based on the palatable nature of sucrose observed in a number of mouse strains. On the first day of the test, sucrose-naive mice were placed in individual cages at 11 am and left there with water and food for habituation period. At 5 pm one water bottle was replaced with two bottles: one containing water and another 0.8% sucrose solution. Three hours later (8 pm) the bottles were weighed to measure liquid consumption and were replaced in cages until morning. The measures of an overnight consumption were then carried out for additional day to evaluate sucrose preference. Mice were not water deprived at any moment, in order to measure spontaneous sucrose preference and exclude any potential emotional confounds induced by stress of water deprivation. The sucrose preference was expressed as the percent of sucrose solution consumed with respect to total liquid consumption.
as §2
For behavioral analysis, 9CDHROL and 9CDHBC were dissolved in ethanol, and then mixed with sunflower oil, so that the final solution contained 3% ethanol. Vehicle treatments consisted of 3% ethanol solution in sunflower oil. For memory studies treatments with 9CDHRA were administered by intraperitoneal injections at volume/weight ratio 3 ml/kg at 7 am and 7 hours before the beginning of testing. For tests with animal model of chronic social defeat, different treatments were administered […] day of stress protocol immediately after the stress session starting from day 1 of the stress protocol.
This task, designed to measure hedonic behavior in mice (Moreau, 1997), is based on the palatable nature of sucrose observed in a number of mouse strains. On the first day of the test, sucrose-naive mice were placed in individual cages at 11 am and left there with water and food for habituation period. At 5 pm one water bottle was replaced with two bottles: one containing water and another 0.8% sucrose solution. Three hours later (8 pm) the bottles were weighed to measure liquid consumption and were replaced in cages until morning. The measures of an overnight consumption were then carried out for additional day to evaluate sucrose preference. Mice were not water deprived at any moment, in order to measure spontaneous sucrose preference and exclude any potential emotional confounds induced by stress of water deprivation. The sucrose preference was expressed as the percent of sucrose solution consumed with respect to total liquid consumption.
Social defeat stress procedure was a modified version of the protocol previously described (Berton et al. 2006). C57BL/6N mice were defeated chronically for 10 consecutive days. […]

Series [3] can be described thus: Mouse oral supplementation, retinoid levels in serum, brain and liver (LC-MS). The class given is in vivo. Conditions: mice.
Procedure: For metabolic analyses ATROL, 9CDHROL, 9CDHBC and control solutions were prepared as described above. Single per os application of the dose of 40 mg/kg of each substance was used to treat mice in the evening and samples were collected 11 h later in the light protected conditions, weighted, frozen in liquid nitrogen and stored at −80° C. until analyses. Serum was prepared and immediately stored in brown vials at −80° C., till further analysis.
Accordingly, for sample preparation 100 mg of the material (if samples were under 100 mg, water was added up to the used standard weight: 100 mg) or 100 μl serum was diluted with a threefold volume of isopropanol, the tissues were minced by scissors, vortexed for 10 seconds, put in a ultrasonic bath for 5 minutes, shaken for 6 minutes and centrifuged at 13000 rpm in a Heraeus BIOFUGE Fresco at +4° C. […] The dried extracts were resuspended with 30 μl of methanol—MTBE (50-50) and transferred into the autosampler and 10 μl subsequently analysed.
Mouse brain samples were prepared according to the procedure described above. Briefly, after single per os application of the dose of 40 mg/kg of 9CDHROL (or other cited substances) in the evening mice were sacrificed after 11 hours and tissues samples including brain were dissected under light-protection conditions, weighted, frozen in liquid nitrogen and stored at −80° C. until analyses. Serum was prepared and immediately stored in brown vials at −80° C., till further analysis.
For mouse supplementation experiments we treated n=6 mice per os with 40 mg/kg bw 9CDHROL and 11 h after the treatment the mice were killed and blood, brain and liver was taken. After centrifugation of the drawn blood, serum was obtained.
For series [4], the system named is oligodendrocytes cell line 158N. The series can be described thus: Metabolic conversion in mouse oligodendrocytes cell culture (LC-MS). The class given is in vitro ADME. The procedure:
Normal immortalized oligodendrocytes cell line 158N was cultured as previously reported (Feutz et al., 2001). Expediently, cells were cultured in supplemented with 5% calf serum (Invitrogen, France). When cells attained 70% of confluency they were treated with 10^−2 M ethanol solution of one of the following compounds: 9CDHROL, 9CDHROL-acetate, 9CDHRA-ethyl ester. 9CDHRA and ethanol as controls, vehicle treatment. 18 h after treatment cells were collected in amber Eppendorf tubes and stored at −80° C. until analyses. Treatments and cell collection were carried out in light limited conditions to avoid photolysis of retinoids.
(§3) In a slight variant of the method, after reaching confluency of 80% cells were treated with 9CDHROL, 9CDH-retinyl ester (acetate, 9CDHROL-ES), 9CDHRA, 9CDH-retinoyl ester, (ethyl ester, 9CDHRA-ES), ATROL, 9CDHBC, 9CBC and ATBC at a concentration of 10^−6 M or ethanol at corresponding concentration was used as control vehicle treatment. Cells were harvested 18 hours later, centrifuged, weighted, frozen in liquid nitrogen and stored at −80° C. until analyses.
(§4) High performance liquid chromatography mass spectrometry (LC-MS) was carried out as described in Example 4.

Series [5] concerns human oligodendrocytes cell cultures. The series can be described thus: Metabolic conversion in human oligodendrocytes cell culture (HPLC-MS). The class given is in vitro ADME. The procedure: as §3, §4
9CDHRA levels including standard deviation in human oligodendrocytes cultures were assessed using HPLC-MS analysis after control treatment using ethanol (CTRL), as well as ATROL treatment (ATROL), 9CBC treatments (9CBC), ATBC treatments (ATBC), 9CDHBC treatment (9CDHBC), 9CDHROL treatments (9CDHROL), 9CDHROL-ester treatments (9CDHROL-ES), 9CDHRA treatments (9CDHRA) or 9CDHRA-ester treatments (9CDHRA-ES), each with 10^−6M concentration and n=3 (FIG. 14D).

For series [6] the following is noted: after column chromatography.
[7] abbreviates: per os 40 mg/kg, 11 h after treatment.

Molecules are shown by their SMILES. “Also recorded” adds a separate entry of the source.

Turning to `CC1=C(/C=C/C(C)=C\C=C\[C@H](C)C/C=C/C=C(C)/C=C/C=C(C)/C=C/C2=C(C)CCCC2(C)C)C(C)(C)CCC1` (stereo in doubt) [9CDHBC, (R)-9-cis-13,14-Dihydro-β,β-carotene], the “immobility time in the forced swim test” value in series [1] was “decreased such immobility; also recorded: efficiently normalised immobility time”. Besides, the “sucrose preference (anhedonia)” value in series [2] is “prevented; also recorded: Anhedonia was abolished”. Further, in series [3] (oral gavage 40 mg/kg), the “ATROL levels in mouse organs after treatment” value is “no metabolic conversion”. Also, in series [3] (setting [7]), the “9CDHRA levels in serum, brain and liver after treatment (conversion to 9CDHRA)” value is on record as “moderate but significant increase”; the “9CDHROL levels in serum, brain and liver after treatment” value is recorded as “did not increase”. Also, the “ATROL levels in cells after treatment” value in series [4] (10^−6M) is listed as “a low conversion or induced increase”. Also, the “9CDHROL levels in cells after treatment” value in series [4] (10^−6 M, 18 hours) is reported as “increases; also recorded: moderately”. Further, the “9CBC in cells after treatment” value in series [4] (411 nm detection, retention time 26.1 min) was “no 9CBC could be detected”. In addition, the “9CDHBC peak in cells after treatment” value in series [4] (UV detection at 366 nm, retention time 25.1 min) was “even higher peak was conclusively detected”. Moreover, the “conversion to 9CDHRA” value in series [4] (data not shown) is “not converted to 9CDHRA”. In addition, the “9CDHRA levels in cells after treatment (metabolism / accumulation)” value in series [5] (10^−6M, n=3) is listed as “not converted to 9CDHRA”. Further, the “precursor substrate of 9CDHROL” value in series [5] (in vitro) is reported as “excellent precursor substrates”. Moreover, the “stability of the isolated product” value in series [6] was “very unstable and easily degraded”.
